Earlier results in patent US20040220281A1, “Treatment of hormone-refractory prostate cancer” (priority 2003, published 2004).
Where two headings read alike, the source gives them in different places.

Assays:
CYP 3A4 = CYP 3A4 (Homo sapiens, UniProt P08684)
[1] = biological target: p-glycoprotein (P-gp) pump (Homo sapiens, UniProt P08183)
[2] = in vitro
[3] = in vivo

Sequence of CYP 3A4 (P08684 whole entry, species assumed): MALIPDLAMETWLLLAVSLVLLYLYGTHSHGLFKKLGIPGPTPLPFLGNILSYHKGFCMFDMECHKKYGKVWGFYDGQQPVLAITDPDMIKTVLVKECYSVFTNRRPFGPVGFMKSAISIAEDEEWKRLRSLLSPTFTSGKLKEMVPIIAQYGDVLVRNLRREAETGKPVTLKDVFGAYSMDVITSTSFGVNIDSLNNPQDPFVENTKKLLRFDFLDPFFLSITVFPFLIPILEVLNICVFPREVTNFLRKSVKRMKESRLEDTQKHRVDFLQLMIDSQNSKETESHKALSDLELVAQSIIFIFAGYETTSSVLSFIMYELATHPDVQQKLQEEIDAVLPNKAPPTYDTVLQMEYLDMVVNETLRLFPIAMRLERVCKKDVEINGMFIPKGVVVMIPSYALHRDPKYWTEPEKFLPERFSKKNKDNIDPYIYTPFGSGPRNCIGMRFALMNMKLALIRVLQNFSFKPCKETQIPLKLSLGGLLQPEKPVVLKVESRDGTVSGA
Sequence of p-glycoprotein (P-gp) pump (P08183 whole entry): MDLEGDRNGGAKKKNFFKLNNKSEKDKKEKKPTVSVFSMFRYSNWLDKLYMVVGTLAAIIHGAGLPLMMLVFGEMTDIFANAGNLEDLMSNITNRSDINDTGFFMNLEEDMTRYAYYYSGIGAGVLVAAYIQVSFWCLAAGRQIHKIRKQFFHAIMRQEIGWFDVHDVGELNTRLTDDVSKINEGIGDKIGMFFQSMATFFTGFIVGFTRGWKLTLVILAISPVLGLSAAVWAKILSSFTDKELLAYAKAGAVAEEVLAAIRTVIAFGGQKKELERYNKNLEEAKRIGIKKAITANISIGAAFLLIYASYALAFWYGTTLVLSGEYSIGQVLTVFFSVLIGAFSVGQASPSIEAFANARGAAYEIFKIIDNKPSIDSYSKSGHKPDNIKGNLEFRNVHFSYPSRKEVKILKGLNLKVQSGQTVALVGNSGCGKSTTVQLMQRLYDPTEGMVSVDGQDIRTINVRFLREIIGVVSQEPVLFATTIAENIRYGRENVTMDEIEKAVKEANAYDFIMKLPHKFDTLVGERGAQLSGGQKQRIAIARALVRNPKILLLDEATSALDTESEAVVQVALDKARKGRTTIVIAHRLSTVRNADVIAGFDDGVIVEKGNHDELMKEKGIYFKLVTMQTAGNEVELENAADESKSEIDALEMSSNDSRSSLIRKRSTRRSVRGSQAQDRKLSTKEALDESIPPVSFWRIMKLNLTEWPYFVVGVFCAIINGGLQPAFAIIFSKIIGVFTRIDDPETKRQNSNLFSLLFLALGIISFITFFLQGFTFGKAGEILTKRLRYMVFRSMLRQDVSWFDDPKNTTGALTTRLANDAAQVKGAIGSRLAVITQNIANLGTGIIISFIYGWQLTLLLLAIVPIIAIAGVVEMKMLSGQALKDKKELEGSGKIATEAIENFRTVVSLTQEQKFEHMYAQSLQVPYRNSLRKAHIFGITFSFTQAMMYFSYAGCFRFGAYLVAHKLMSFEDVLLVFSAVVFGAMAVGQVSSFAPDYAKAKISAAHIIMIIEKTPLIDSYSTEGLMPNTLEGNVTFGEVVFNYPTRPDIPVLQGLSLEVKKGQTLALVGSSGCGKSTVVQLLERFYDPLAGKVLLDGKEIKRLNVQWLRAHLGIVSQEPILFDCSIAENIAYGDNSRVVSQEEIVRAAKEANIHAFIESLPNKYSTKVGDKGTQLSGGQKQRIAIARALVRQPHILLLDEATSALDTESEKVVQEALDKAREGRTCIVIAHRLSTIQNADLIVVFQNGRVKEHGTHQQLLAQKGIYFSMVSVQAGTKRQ

CCN(CC)CCOc1ccc(Cc2ccccc2)cc1 [DPPE, N,N-diethyl-2-[4-(phenylmethyl)-phenoxy]ethanamine]
substrate for CYP 3A4 (CYP 3A4): potent substrate
inhibition of the p-glycoprotein (P-gp) pump [1]: inhibits
potentiation of cytotoxicity of a variety of antineoplastic drugs [2]: potentiates the cytotoxicity
potentiation of cytotoxicity of a variety of antineoplastic drugs [3]: potentiates the cytotoxicity
